Source: patent US9066948B2, “Oxadiazolo[3,2-a]pyrimidines and thiadiazolo[3,2-a]pyrimidines” (THE UNITED STATES OF AMERICA AS REPRESENTED BY THE …, priority 2010, dated 2015)

How the values were obtained:
WT mouse platelets = test: ADP-induced platelet aggregation, mouse PRP (Example 45); assay type: cell-based
Procedure: Blood may be drawn via cardiac puncture from anesthetized Sprague Dawley rats (Taconic, Hudson, N.Y.), WT C57B1/6 mice (Jackson Laboratories, Bar Harbor, Me.), and mice expressing hαIIb/mβ3 and diluted 1:1 with a mixture of 4 parts 0.165 […], pH 7.4 containing 2 mM CaCl2 and 1 mM MgCl2. Blood from consenting human volunteers is obtained from a peripheral vein using a 19 gauge needle and anticoagulated with 1:10 vol 3.8% sodium citrate. Platelet-rich plasma (PRP) may be isolated by centrifugation at 22° C. at 350 g for 10 minutes (rats); 250 g for 2.5 minutes (mice); or 650 g for 4 minutes (human). Mouse PRP samples may be adjusted to 400,000 platelets/μl with the buffer used for dilution and human PRP may be adjusted to 300,000 platelets/μl with platelet-poor plasma. […] Platelet aggregation may be induced by adding to PRP adenosine diphosphate (ADP) at 30 μM (rats and WT mice), 20 or 30 μM (hαIIb/mβ3 mice), or 5 μM (humans), and light transmission may be measured over time in an aggregometer (Kowa AG-10E, Tokyo, Japan) with stirring. Percent inhibition may be calculated by comparing the initial slope of untreated samples to the samples treated with the Compounds of the Invention.

washed platelets [1] = test: Platelet adhesion/aggregation to collagen; assay type: cell-based, human
Procedure: (§1) Washed platelets are prepared as per the primary screening assay, suspended in HBMT containing 1 mM MgCl2 (platelet adhesion to collagen) or 2 mM CaCl2/1 mM MgCl2 (platelet adhesion to fibrinogen) and adjusted to a count of 250×10^9/L. HEK293 cells stably expressing normal human αVβ3 or normal human αIIbβ3 are suspended in HBMT containing either 1 mM MgCl2 (HEK293 cells expressing αVβ3 for adhesion to vitronectin) or 2 mM CaCl2/1 mM MgCl2 (HEK293 cells expressing αIIbβ3 for adhesion to fibrinogen); the cell counts are adjusted to 10^6/mL. Polystyrene 96-well microtiter plates (Nunc) are coated with either fibrinogen (50 μg/mL), vitronectin (5 μg/mL), or collagen (33 μg/mL, rat tail type 1; Becton Dickinson) for 1 hour, and blocked with HBMT for at least 1 hour. Platelets and cells are treated with the compound of Example 27 of the current invention or 2-ethyl-7-(piperazin-1-yl)-5H-[1,3,4]thiadiazolo-[3,2-a]pyrimidin-5-one of U.S. Ser. No. 12/514,286 in the presence or absence of anti-α2β1 mAb 6F1, anti-αIIbβ3 mAb 10E5, anti-αIIbβ3 mAb 10E5+αVβ3 mAb 7E3, αVβ3-specific mAb LM609, or anti-αVβ3+αIIbβ3 mAb 7E3, for 15 minutes at 37° C. before being added to the microtiter wells. After adhering for 1 hour at either 22° C. (platelets) or 37° C. (cells), nonadherent platelets or cells are removed by washing 3 times with HBMT containing the same ion composition as the buffer used for adhesion. […] In other experiments, 8-chambered glass coverslips (Nunc) are coated with collagen (33 μg/mL) for 1 hour at 22° C. Washed platelets are allowed to adhere for 1 hour at 22° C. and the coverslips are stained with the Alexa-488-conjugated β3-specific mAb 7H2. Adherent platelets are imaged using a Zeiss LSM-510 confocal system with Axiovert 200 microscope (Carl Zeiss, Heidelberg, Germany) using a Plan-Apochromat 100/1.4 NA oil DIC objective.

[2] = biological target: T1, HEK293 cells stably expressing normal human αVβ3 (Homo sapiens, UniProt P05106+P06756); test: αVβ3-mediated cell adhesion to vitronectin; assay type: cell-based
T1 construct: expressed in transfected cells; host or cells: HEK293
T1 sequence (P06756 31-889 limits assumed): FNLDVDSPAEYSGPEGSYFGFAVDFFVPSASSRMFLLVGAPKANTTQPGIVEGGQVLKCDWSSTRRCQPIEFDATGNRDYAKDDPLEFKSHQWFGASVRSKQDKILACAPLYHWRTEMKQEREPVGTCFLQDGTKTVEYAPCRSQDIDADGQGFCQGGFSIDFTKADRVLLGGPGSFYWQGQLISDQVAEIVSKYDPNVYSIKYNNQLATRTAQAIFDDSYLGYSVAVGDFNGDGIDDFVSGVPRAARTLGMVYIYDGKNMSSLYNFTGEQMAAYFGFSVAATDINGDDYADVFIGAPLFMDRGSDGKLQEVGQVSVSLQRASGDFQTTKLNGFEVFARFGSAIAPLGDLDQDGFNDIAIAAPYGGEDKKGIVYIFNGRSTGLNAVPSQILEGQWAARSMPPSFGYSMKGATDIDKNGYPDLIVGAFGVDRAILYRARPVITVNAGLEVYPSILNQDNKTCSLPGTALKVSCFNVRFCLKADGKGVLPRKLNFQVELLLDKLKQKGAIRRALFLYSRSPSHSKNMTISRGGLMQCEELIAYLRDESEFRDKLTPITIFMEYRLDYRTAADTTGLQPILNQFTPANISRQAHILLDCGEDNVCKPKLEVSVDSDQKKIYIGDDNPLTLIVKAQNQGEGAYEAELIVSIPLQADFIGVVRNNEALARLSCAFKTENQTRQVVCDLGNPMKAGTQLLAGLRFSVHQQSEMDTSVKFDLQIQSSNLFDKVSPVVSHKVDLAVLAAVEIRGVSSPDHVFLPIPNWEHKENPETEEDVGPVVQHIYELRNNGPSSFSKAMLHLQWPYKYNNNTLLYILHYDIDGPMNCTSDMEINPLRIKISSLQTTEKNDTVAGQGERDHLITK
T1 sequence (P06756 891-1048 partner limits assumed): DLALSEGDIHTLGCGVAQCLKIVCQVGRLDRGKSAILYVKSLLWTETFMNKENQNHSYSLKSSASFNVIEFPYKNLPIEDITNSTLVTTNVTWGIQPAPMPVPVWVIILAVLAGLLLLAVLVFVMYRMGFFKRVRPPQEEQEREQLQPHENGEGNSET
T1 sequence (P05106 27-788): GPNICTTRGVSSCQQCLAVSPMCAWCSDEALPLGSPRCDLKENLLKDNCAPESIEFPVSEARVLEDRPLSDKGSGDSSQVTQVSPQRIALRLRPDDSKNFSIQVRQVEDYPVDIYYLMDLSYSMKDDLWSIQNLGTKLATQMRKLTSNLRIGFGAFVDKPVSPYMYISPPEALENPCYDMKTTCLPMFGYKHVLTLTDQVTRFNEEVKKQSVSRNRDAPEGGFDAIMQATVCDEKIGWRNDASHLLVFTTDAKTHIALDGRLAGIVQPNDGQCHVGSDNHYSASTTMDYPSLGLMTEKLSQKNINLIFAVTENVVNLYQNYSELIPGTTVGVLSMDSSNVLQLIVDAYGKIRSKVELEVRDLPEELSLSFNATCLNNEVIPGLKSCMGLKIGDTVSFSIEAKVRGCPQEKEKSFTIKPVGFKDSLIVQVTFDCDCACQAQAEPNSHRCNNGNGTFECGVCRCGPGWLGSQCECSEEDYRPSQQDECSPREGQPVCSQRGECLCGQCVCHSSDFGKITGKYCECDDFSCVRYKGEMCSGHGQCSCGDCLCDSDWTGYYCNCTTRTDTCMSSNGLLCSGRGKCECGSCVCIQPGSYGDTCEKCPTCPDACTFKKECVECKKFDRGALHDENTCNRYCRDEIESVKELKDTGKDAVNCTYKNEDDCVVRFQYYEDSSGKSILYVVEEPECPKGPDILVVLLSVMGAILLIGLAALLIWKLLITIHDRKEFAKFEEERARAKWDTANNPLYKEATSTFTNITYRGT
Procedure: as §1

[3] = biological target: T2, HEK293 cells stably expressing normal human αIIbβ3 (Homo sapiens, UniProt P05106+P08514); test: αIIbβ3-mediated cell adhesion to fibrinogen; assay type: cell-based; details: same concentration as αVβ3 experiments (10 μM), n=4
T2 construct: expressed in transfected cells; host or cells: HEK293
T2 sequence (P08514 32-887 limits assumed): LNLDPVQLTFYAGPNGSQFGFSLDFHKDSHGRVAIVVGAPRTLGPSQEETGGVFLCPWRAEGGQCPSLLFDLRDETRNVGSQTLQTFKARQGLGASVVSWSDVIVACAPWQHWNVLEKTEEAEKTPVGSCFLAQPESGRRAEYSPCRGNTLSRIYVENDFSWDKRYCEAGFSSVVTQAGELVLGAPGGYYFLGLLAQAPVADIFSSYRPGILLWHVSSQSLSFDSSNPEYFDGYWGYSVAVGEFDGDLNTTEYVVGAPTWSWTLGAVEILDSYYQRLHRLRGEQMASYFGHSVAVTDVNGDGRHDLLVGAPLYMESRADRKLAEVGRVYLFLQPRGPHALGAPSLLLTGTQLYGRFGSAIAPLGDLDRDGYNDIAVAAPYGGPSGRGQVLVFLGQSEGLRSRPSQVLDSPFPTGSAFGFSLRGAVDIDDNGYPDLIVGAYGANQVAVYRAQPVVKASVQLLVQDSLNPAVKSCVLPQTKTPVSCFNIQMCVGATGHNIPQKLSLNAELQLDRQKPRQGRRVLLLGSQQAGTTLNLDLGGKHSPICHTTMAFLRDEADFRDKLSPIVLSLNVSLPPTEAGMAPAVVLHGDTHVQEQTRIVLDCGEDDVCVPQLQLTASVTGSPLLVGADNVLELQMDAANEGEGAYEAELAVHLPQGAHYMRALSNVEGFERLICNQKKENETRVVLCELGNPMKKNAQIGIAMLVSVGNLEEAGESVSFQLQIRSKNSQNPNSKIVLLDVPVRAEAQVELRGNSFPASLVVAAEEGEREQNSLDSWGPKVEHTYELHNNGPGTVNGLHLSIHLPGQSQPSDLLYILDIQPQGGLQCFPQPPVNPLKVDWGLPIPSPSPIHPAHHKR
T2 sequence (P08514 891-1039 partner limits assumed): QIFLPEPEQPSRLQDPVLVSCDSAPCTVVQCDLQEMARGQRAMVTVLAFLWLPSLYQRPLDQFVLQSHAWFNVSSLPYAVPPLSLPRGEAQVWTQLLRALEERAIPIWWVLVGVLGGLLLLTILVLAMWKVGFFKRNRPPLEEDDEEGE
T2 sequence (P05106 27-788): as the sequence (P05106 27-788) above
Procedure: Washed platelets are prepared as per the primary screening assay, suspended in HBMT containing 1 mM MgCl2 (platelet adhesion to collagen) or 2 mM CaCl2/1 mM MgCl2 (platelet adhesion to fibrinogen) and adjusted to a count of 250×10^9/L. HEK293 cells stably expressing normal human αVβ3 or normal human αIIbβ3 are suspended in HBMT containing either 1 mM MgCl2 (HEK293 cells expressing αVβ3 for adhesion to vitronectin) or 2 mM CaCl2/1 mM MgCl2 (HEK293 cells expressing αIIbβ3 for adhesion to fibrinogen); the cell counts are adjusted to 10^6/mL. Polystyrene 96-well microtiter plates (Nunc) are coated with either fibrinogen (50 μg/mL), vitronectin (5 μg/mL), or collagen (33 μg/mL, rat tail type 1; Becton Dickinson) for 1 hour, and blocked with HBMT for at least 1 hour. Platelets and cells are treated with the compound of Example 27 of the current invention or 2-ethyl-7-(piperazin-1-yl)-5H-[1,3,4]thiadiazolo-[3,2-a]pyrimidin-5-one of U.S. Ser. No. 12/514,286 in the presence or absence of anti-α2β1 mAb 6F1, anti-αIIbβ3 mAb 10E5, anti-αIIbβ3 mAb 10E5+αVβ3 mAb 7E3, αVβ3-specific mAb LM609, or anti-αVβ3+αIIbβ3 mAb 7E3, for 15 minutes at 37° C. before being added to the microtiter wells. After adhering for 1 hour at either 22° C. (platelets) or 37° C. […]

washed platelets [4] = test: Effect of Mg2+ concentration on platelet adhesion to fibrinogen; assay type: cell-based, human; details: for IC50: Homo sapiens, Platelet, mean±SD, three experiments
Procedure: Washed platelets in buffers containing 1 mM Ca^2+ plus 1 mM, 20 mM, or 50 mM Mg^2+ are added to wells pre-coated with fibrinogen (50 μg/ml) for 60 min at 22° C. After washing, adherent platelets are detected by acid phosphatase activity. Results are expressed as mean±SD (n=3 for the compound of Example 27 of the current invention and 2-ethyl-7-(piperazin-1-yl)-5H-[1,3,4]thiadiazolo-[3,2-a]pyrimidin-5-one (a compound disclosed and claimed in U.S. Ser. No. 12/514,286); n=2 for tirofiban).

washed platelets [5] = test: Effect of Mg2+ on washed platelet aggregation induced by thrombin receptor activating peptide (SFLLRN); assay type: cell-based, human; details: compound at 1 μM; SFLLRN 10 μM
Procedure: Washed platelets are resuspended in buffer containing fibrinogen (200 μg/ml) and 1 mM […] in combination with either 1 mM or 20 mM Mg^2+. Aggregation is induced by adding a thrombin receptor activating peptide (SFLLRN) at 10 μM.

NCC(=O)Nc1cccc(-c2nn3c(=O)cc(N4CCNCC4)nc3s2)c1 [Example 27, 2-amino-N-(3-(5-oxo-7-(piperazin-1-yl)-5H-[1,3,4]thiadiazolo[3,2-a]pyrimidin-2-yl)phenyl)acetamide]
selectivity for human compared to mouse or rat αIIbβ3 (WT mouse platelets): selective for human WIND compared to mouse or rat αIIbβ3 | inhibition of mouse platelet aggregation induced by ADP (WT mouse platelets; 1 μM): does not inhibit either mouse or rat platelet aggregation | inhibition of platelet adhesion/aggregation to collagen (washed platelets [1]; 1-100 μM): ~30% | further inhibition of adhesion/aggregation to collagen when combined with anti-αIIbβ3 antibody 10E5 (washed platelets [1]; combination with mAb 10E5): does not further inhibit adhesion/aggregation | platelet adhesion to collagen, microscopic analysis (washed platelets [1]; confocal microscopy of adherent platelets): does not decrease platelet adhesion to collagen | selectivity for αIIbβ3 compared to αVβ3 [2]: selective for αIIbβ3 compared to αVβ3 | inhibition at 10 µM [3]: 65 ± 5% | decrease in affinity going from 1 to 50 mM Mg2+ (washed platelets [4]; 1 to 50 mM Mg2+): ~80% | increase in IC50 going from 1 to 50 mM Mg2+ (washed platelets [4]; 1 to 50 mM Mg2+): ~4.5 fold | IC50 (washed platelets [4]; 1 mM Mg2+): 290 ± 100 nM | IC50 (washed platelets [4]; 20 mM Mg2+): 910 ± 210 nM | IC50 (washed platelets [4]; 50 mM Mg2+): 1300 ± 350 nM | effect of Mg2+ on the inhibition of SFLLRN-induced platelet aggregation (washed platelets [5]): clearly attenuated at 20 mM Mg^2+
